Results reported in patent publication US8012975B2, “Antitumoral analogs of ET-743” (Pharma Mar, S.A., priority 2000, dated 2011).
Where two headings read alike, the source gives them in different places.

Assays:
[1] = test system: P-388; experiment: Cytotoxic activity IC50, P-388
[2] = test system: A-549; experiment: Cytotoxic activity IC50, A-549
[3] = test system: HT-29; experiment: Cytotoxic activity IC50, HT-29
[4] = test system: MEL-28; experiment: Cytotoxic activity IC50, MEL-28
[5] = test system: DU-145; experiment: Cytotoxic activity IC50, DU-145
[6] = Mus musculus, P388, read-out: CYTOTOXIC ACTIVITIY IC50 (μM) P-388
[7] = Homo sapiens, A549, read-out: CYTOTOXIC ACTIVITIY IC50 (μM) A-549, A-549
[8] = Homo sapiens, HT-29, read-out: CYTOTOXIC ACTIVITIY IC50 (μM) HT-29, HT-29
[9] = Homo sapiens, SK-MEL-28, read-out: CYTOTOXIC ACTIVITIY IC50 (μM) MEL-28, MEL-28
[10] = Homo sapiens, DU-145, read-out: CYTOTOXIC ACTIVITIY IC50 (μM) DU-145, DU-145

Compound | IC50 [1, 6] | IC50 [2, 7] | IC50 [3, 8] | IC50 [4, 9] | IC50 [5, 10] | IC50 ([2]; Homo sapiens, A549, read-out: CYTOTOXIC ACTIVITIY IC50 (μM) A-549) | IC50 ([3]; Homo sapiens, HT-29, read-out: CYTOTOXIC ACTIVITIY IC50 (μM) HT-29) | IC50 ([4]; Homo sapiens, SK-MEL-28, read-out: CYTOTOXIC ACTIVITIY IC50 (μM) MEL-28) | IC50 ([5]; Homo sapiens, DU-145, read-out: CYTOTOXIC ACTIVITIY IC50 (μM) DU-145) | IC50 ([1]; read-out: CYTOTOXIC ACTIVITIY IC50 (μM) P-388, P-388) | IC50 ([2]; read-out: CYTOTOXIC ACTIVITIY IC50 (μM) A-549, A-549) | IC50 ([3]; read-out: CYTOTOXIC ACTIVITIY IC50 (μM) HT-29, HT-29) | IC50 ([4]; read-out: CYTOTOXIC ACTIVITIY IC50 (μM) MEL-28, MEL-28) | IC50 ([5]; read-out: CYTOTOXIC ACTIVITIY IC50 (μM) DU-145, DU-145)
C/C=C/C(=O)N[C@@H](C)C(=O)NC[C@H]1c2c(c(OC(C)=O)c(C)c3c2OCO3)CC2[C@H]3c4c(cc(C)c(OC)c4O)C[C@@H]([C@H](O)N21)N3C (stereo partly drawn) | 0.001 µM | 0.007 µM | 0.001 µM | 0.001 µM | 0.007 µM |  |  |  |  |  |  |  |  | 
COc1c(C)cc2c(c1O)[C@@H]1C3Cc4c(OC(=O)CCl)c(C)c5c(c4[C@H](CNC(=O)CCc4ccccc4)N3[C@@H](C#N)[C@H](C2)N1C)OCO5 (stereo partly drawn) | 0.001 µM | 0.001 µM | 0.001 µM | 0.001 µM | 0.001 µM |  |  |  |  |  |  |  |  | 
COCOc1c(OC)c(C)cc2c1[C@@H]1C3Cc4c(OC(=O)CCl)c(C)c5c(c4[C@H](CNC(=O)CCc4ccccc4)N3[C@@H](C#N)[C@H](C2)N1C)OCO5 (stereo partly drawn) | 0.1 µM | 0.1 µM | 0.1 µM | 0.1 µM | 0.1 µM |  |  |  |  |  |  |  |  | 
C=CCOc1c(C)c2c(c3c1CC1[C@H]4c5c(cc(C)c(OC)c5OCOC)C[C@@H]([C@H](C#N)N1[C@H]3COC(=O)/C=C/c1ccccc1)N4C)OCO2 (stereo partly drawn) | 0.1 µM | 0.1 µM | 0.1 µM | 0.1 µM | 0.1 µM |  |  |  |  |  |  |  |  | 
COCOc1c(OC)c(C)cc2c1[C@@H]1C3Cc4c(OC(C)=O)c(C)c5c(c4[C@H](COC(=O)CCc4ccccc4)N3[C@@H](C#N)[C@H](C2)N1C)OCO5 (stereo partly drawn) | 0.1 µM | 0.1 µM | 0.1 µM | 0.1 µM | 0.1 µM |  |  |  |  |  |  |  |  | 
COCOc1c(OC)c(C)cc2c1[C@@H]1C3Cc4c(OC(=O)C(F)(F)F)c(C)c5c(c4[C@H](CNC(=O)CCc4ccccc4)N3[C@@H](C#N)[C@H](C2)N1C)OCO5 (stereo partly drawn) | 0.5 µM | 0.5 µM | 0.5 µM | 0.5 µM | 0.5 µM |  |  |  |  |  |  |  |  | 
COc1c(C)cc2c(c1O)[C@@H]1C3Cc4c(OC(C)=O)c(C)c5c(c4[C@H](CNC(=O)[C@H](C)NC(=O)[C@@H](NC(=O)OCc4ccccc4)C(C)C)N3[C@@H](C#N)[C@H](C2)N1C)OCO5 (stereo partly drawn) | 0.01 µM | 0.01 µM | 0.01 µM | 0.01 µM | 0.01 µM |  |  |  |  |  |  |  |  | 
C=CCOc1c(C)c2c(c3c1CC1[C@H]4c5c(cc(C)c(OC)c5OCOC)C[C@@H]([C@H](C#N)N1[C@H]3COC(=O)CCC)N4C)OCO2 (stereo partly drawn) | > 1 µM | > 1 µM | > 1 µM | > 1 µM | > 1 µM |  |  |  |  |  |  |  |  | 
COCOc1c(OC)c(C)cc2c1[C@@H]1C3Cc4c(O)c(C)c5c(c4[C@H](COC(=O)/C=C/c4cccc(C(F)(F)F)c4)N3[C@@H](C#N)[C@H](C2)N1C)OCO5 (stereo partly drawn) | 0.1 µM | 0.1 µM | 0.1 µM | 0.1 µM | 0.1 µM |  |  |  |  |  |  |  |  | 
C=CCOc1c(C)c2c(c3c1CC1[C@H]4c5c(cc(C)c(OC)c5OCOC)C[C@@H]([C@H](C#N)N1[C@H]3CO)N4C)OCO2 (stereo partly drawn) | 0.2 µM | 0.2 µM | 0.2 µM | 0.2 µM | 0.2 µM |  |  |  |  |  |  |  |  | 
C=CCOC(=O)Oc1c(C)c2c(c3c1CC1[C@H]4c5c(cc(C)c(OC)c5O)C[C@@H]([C@H](C#N)N1[C@H]3CNC(=O)[C@H](C)N)N4C)OCO2 (stereo partly drawn) | 0.001 µM | 0.001 µM | 0.001 µM | 0.001 µM | 0.001 µM |  |  |  |  |  |  |  |  | 
CCC(=O)N[C@@H](C)C(=O)NC[C@H]1c2c(c(OC(C)=O)c(C)c3c2OCO3)CC2[C@H]3c4c(cc(C)c(OC)c4O)C[C@@H]([C@H](C#N)N21)N3C (stereo partly drawn) | 0.0007 µM | 0.0007 µM | 0.0007 µM | 0.0007 µM | 0.0007 µM |  |  |  |  |  |  |  |  | 
C/C=C/C(=O)N[C@@H](C)C(=O)NC[C@H]1c2c(c(OC(C)=O)c(C)c3c2OCO3)CC2[C@H]3c4c(cc(C)c(OC)c4O)C[C@@H]([C@H](C#N)N21)N3C (stereo partly drawn) | 0.001 µM | 0.007 µM | 0.001 µM | 0.001 µM | 0.007 µM |  |  |  |  |  |  |  |  | 
CCCC(=O)N[C@@H](C)C(=O)NC[C@H]1c2c(c(OC(C)=O)c(C)c3c2OCO3)CC2[C@H]3c4c(cc(C)c(OC)c4O)C[C@@H]([C@H](O)N21)N3C (stereo partly drawn) | 0.001 µM | 0.001 µM | 0.001 µM | 0.001 µM | 0.001 µM |  |  |  |  |  |  |  |  | 
COc1c(C)cc2c(c1O)[C@@H]1C3Cc4c(OC(C)=O)c(C)c5c(c4[C@H](CNC(=O)[C@H](C)NC(=O)CCc4ccccc4)N3[C@@H](C#N)[C@H](C2)N1C)OCO5 (stereo partly drawn) | 0.0006 µM | 0.001 µM | 0.0006 µM | 0.001 µM | 0.0006 µM |  |  |  |  |  |  |  |  | 
CCCCC(=O)NC[C@H]1c2c(c(OC(C)=O)c(C)c3c2OCO3)CC2[C@H]3c4c(cc(C)c(OC)c4O)C[C@@H]([C@H](C#N)N21)N3C (stereo partly drawn) | 0.007 µM | 0.007 µM | 0.007 µM | 0.007 µM | 0.007 µM |  |  |  |  |  |  |  |  | 
COCOc1c(OC)c(C)cc2c1[C@@H]1C3Cc4c(OC(C)=O)c(C)c5c(c4[C@H](COC(=O)/C=C/c4cccc(C(F)(F)F)c4)N3[C@@H](C#N)[C@H](C2)N1C)OCO5 (stereo partly drawn) | 0.6 µM | 0.6 µM | 0.6 µM | 0.6 µM | 0.6 µM |  |  |  |  |  |  |  |  | 
CCCC(=O)OC[C@H]1c2c(c(O)c(C)c3c2OCO3)CC2[C@H]3c4c(cc(C)c(OC)c4OCOC)C[C@@H]([C@H](C#N)N21)N3C (stereo partly drawn) | 0.1 µM | 0.1 µM | 0.1 µM | 0.1 µM | 0.1 µM |  |  |  |  |  |  |  |  | 
COc1c(C)cc2c(c1O)[C@@H]1C3Cc4c(OC(C)=O)c(C)c5c(c4[C@H](CNC(=O)[C@@H](NC(=O)OCc4ccccc4)C(C)C)N3[C@@H](C#N)[C@H](C2)N1C)OCO5 (stereo partly drawn) | 0.001 µM | 0.001 µM | 0.001 µM | 0.001 µM | 0.001 µM |  |  |  |  |  |  |  |  | 
COC1=C(C)C(=O)C2=C(C1=O)[C@H](CNC(=O)[C@H](C)NC(C)=O)N1C(C2)[C@H]2c3c(cc(C)c(OC)c3O)C[C@@H]([C@@H]1C#N)N2C (stereo partly drawn) | 0.08 µM | 0.08 µM | 0.08 µM | 0.08 µM | 0.08 µM |  |  |  |  |  |  |  |  | 
C=CCOC(=O)Oc1c(C)c2c(c3c1CC1[C@H]4c5c(cc(C)c(OC)c5OCOC)C[C@@H]([C@H](C#N)N1[C@H]3CNC(=O)[C@H](C)NC(=O)OC(C)(C)C)N4C)OCO2 (stereo partly drawn) | 0.06 µM | 0.06 µM | 0.06 µM | 0.06 µM | 0.06 µM |  |  |  |  |  |  |  |  | 
C=CCOC(=O)Oc1c(C)c2c(c3c1CC1[C@H]4c5c(cc(C)c(OC)c5O)C[C@@H]([C@H](C#N)N1[C@H]3CNC(=O)[C@H](C)NC(=S)Nc1ccccc1)N4C)OCO2 (stereo partly drawn) | 0.001 µM | 0.001 µM | 0.001 µM | 0.001 µM | 0.001 µM |  |  |  |  |  |  |  |  | 
COCOc1c(OC)c(C)cc2c1[C@@H]1C3Cc4c(O)c(C)c5c(c4[C@H](CNC(=O)CCc4ccccc4)N3[C@@H](C#N)[C@H](C2)N1C)OCO5 (stereo partly drawn) | 0.1 µM | 0.1 µM | 0.1 µM | 0.1 µM | 0.1 µM |  |  |  |  |  |  |  |  | 
COc1c(C)cc2c(c1O)[C@@H]1C3Cc4c(OC(=O)C(F)(F)C(F)(F)C(F)(F)F)c(C)c5c(c4[C@H](CNC(=O)CCc4ccccc4)N3[C@@H](C#N)[C@H](C2)N1C)OCO5 (stereo partly drawn) | 0.006 µM |  |  |  |  | 0.006 µM | 0.006 µM | 0.006 µM | 0.006 µM |  |  |  |  | 
COc1c(C)cc2c(c1O)[C@@H]1C3Cc4c(OC(=O)C(F)(F)F)c(C)c5c(c4[C@H](CNC(=O)CCc4ccccc4)N3[C@@H](C#N)[C@H](C2)N1C)OCO5 (stereo partly drawn) | 0.01 µM | 0.01 µM | 0.01 µM | 0.01 µM | 0.01 µM |  |  |  |  |  |  |  |  | 
COc1c(C)cc2c(c1O)[C@@H]1C3Cc4c(OC(C)=O)c(C)c5c(c4[C@H](CNC(=O)/C=C/c4cccc(C(F)(F)F)c4)N3[C@@H](O)[C@H](C2)N1C)OCO5 (stereo partly drawn) [drawing 109] |  |  |  |  |  |  |  |  |  | 0.0001 µM | 0.0001 µM | 0.0001 µM | 0.0001 µM | 0.0001 µM
COc1c(C)cc2c(c1O)[C@@H]1C3Cc4c(OC(C)=O)c(C)c5c(c4[C@H](CNC(=O)CC(C)C)N3[C@@H](O)[C@H](C2)N1C)OCO5 (stereo partly drawn) | 0.0008 µM | 0.001 µM | 0.0008 µM | 0.0008 µM | 0.001 µM |  |  |  |  |  |  |  |  | 
C=CCOC(=O)Oc1c(C)c2c(c3c1CC1[C@H]4c5c(cc(C)c(OC)c5O)C[C@@H]([C@H](C#N)N1[C@H]3CNC(=O)OCC(Cl)(Cl)Cl)N4C)OCO2 (stereo partly drawn) | 0.006 µM | 0.006 µM | 0.006 µM | 0.006 µM | 0.006 µM |  |  |  |  |  |  |  |  | 
COCOc1c(OC)c(C)cc2c1[C@@H]1C3Cc4c(O)c(C)c5c(c4[C@H](COC(=O)CCc4ccccc4)N3[C@@H](C#N)[C@H](C2)N1C)OCO5 (stereo partly drawn) | 0.1 µM | 0.1 µM | 0.1 µM | 0.1 µM | 0.1 µM |  |  |  |  |  |  |  |  | 
COCOc1c(OC)c(C)cc2c1[C@@H]1C3Cc4c(OC(=O)CCCl)c(C)c5c(c4[C@H](CNC(=O)CCc4ccccc4)N3[C@@H](C#N)[C@H](C2)N1C)OCO5 (stereo partly drawn) | 0.05 µM | 0.05 µM | 0.05 µM | 0.05 µM | 0.05 µM |  |  |  |  |  |  |  |  | 
